According to US9700633B2, “Conjugates of water soluble polymer-amino acid oligopeptide-drug, preparation method and use thereof” (JENKEM TECHNOLOGY CO. LTD., TIANJIN BRANCH, priority 2013, dated 2017):
“And” between values parts separate entries of the source, which are not always exact repeats. Equal entries are not always repeated. Structures can show the parent of a compound that is named as a salt. Where two headings read alike, the source gives them in different places. Marks after values point to notes of the source that are not given here.

Assays:
[1] = test system: K562 human chronic myelogenous leukemia; test: Subcutaneous tumor model of K562 human chronic myelogenous leukemia; type: in vivo, NOD/SCID mice; details: 5 mg/kg; for Relative tumor volume (x ± SE) / Tumor volume (x ± SE): intravenous twice a week
Description: K562 cells were subcutaneously inoculated at the back of NOD/SCID mice right side so as to establish a subcutaneous xenograft animal model of human chronic myelogenous leukemia. When the average tumor volume reached 130 mm^3, the experiment mice were divided to different groups, with 8 mice for each group, and the drugs were administrated by intravenous injections twice a week. The effect was evaluated based on relative tumor proliferation ratio (T/C %).
Tumor cells were routinely passaged twice a week. Tumor cells in exponential growth phase were collected, then suspended in a mixture of PBS: matrigel with equal volume ratio and placed on ice for tumor inoculation.
5×10^6 K562 cells were subcutaneously inoculated at the back of experiment mice right side. The mice were monitored at regular intervals for the tumor growth. When tumor grew to average 130 mm^3, the mice were divided to groups randomly according to tumor volume and mouse body weight, and were administrated.
(§1) All of the operations relevant to operation, nursing and treatment in this investigation were conducted according to guidelines approved by Association for Assessment and Accreditation of Laboratory Animal Care (AAALAC). After the incoluation, the incidence of disease and death of animals were observed every day. In the process of daily observation, the effects of tumor growth on normal behavior of animals (such as exercise, feeding, drinking, body weight change, eyes, hair) as well as any other abnormality were attentively monitored. Death and clinical symptom were recorded for animals in each group.
The calculation formula for tumor volume is as follows: tumor volume (mm^3)=0.5×(long diameter of the tumor×short diameter of the tumor^2). RTV and T/C ratios were calculated according to the tumor volumes of the treatment groups and the control group. RTV refers to relative tumor volume. T/C ratio refers to the percentage value of the average tumor volumes between the treatment groups and the control group at a time point after the treatment, which reflects the anti-tumor effects of different treatment groups.
All the experiment results were expressed as the average tumor volume±SE (standard error). For statistical analysis, since the variances of relative tumor volume data were different, one-way analysis of variance (one-way ANOVA) and Dunnett T3 method for multiple comparisons were used to compare significant difference of relative tumor volumes between the groups. p<0.05 indicated the significant difference.

[2] = test system: PC-3 human prostate cancer; test: Subcutaneous tumor model of PC-3 human prostate cancer; type: in vivo, Balb/c nude mouse; details: 10 mg/kg; for Relative tumor volume (x ± SE): intravenous twice a week
Description: PC-3 cells were subcutaneously inoculated at the right side on the back of Balb/c nude mouse so as to establish a subcutaneous xenograft animal model of human prostate cancer. When the average tumor volume reached 160 mm^3, the experiment mice were divided to different groups, with 8 mice for each group, and the drugs were administrated by intravenous injections twice a week. The therapeutic effect was evaluated based on relative tumor proliferation ratio (T/C %).
PC-3 cell line was cultured in vitro in Ham's F12K medium with supplement of 10% fetal calf serum and L-glutamine (2 mM) at 37° C. in an atmosphere with 5% CO2 for the tumor cells culture. The tumor cells were routinely passaged twice a week. Tumor cells in exponential growth phase were collected, then were suspended in a mixture of PBS: matrigel with equal volume ratio and were placed on ice for tumor inoculation.
5×10^6 PC-3 cells were subcutaneously inoculated at the right side on the back of experiment mice. The mice were monitored at regular intervals for the tumor growth. When tumor grew to average 160 mm^3, the mice were divided to groups randomly according to the tumor volume and the mouse body weight, and were administrated.
as §1
The calculation formula for tumor volume is as follows: tumor volume (mm^3)=0.5×(long diameter of the tumor×short diameter of the tumor^2). RTV and T/C ratios were calculated according to the tumor volumes of the treatment groups and the control group. RTV refers to relative tumor volume. T/C ratio refers to the percentage value of the relative tumor volumes of the treatment groups and the control group at a time point after the treatment, which reflects the anti-tumor effects of different treatment groups. At the end of the experiment, the pictures of the tumors were recorded according to the following two methods: 1. after euthanatized by CO2, the animals in each group were placed with tumor-bearing side up, and the pictures were taken and recorded respectively for each group; 2. after the tumor was removed, the tumor weight was weighed first. T/C (percentage value of the tumor weight between the treatment group and the control group) was calculated, and then the tumors from each group were placed in order. The pictures of the tumors were taken and recorded.
All the experiment results were expressed as average tumor volume±SE (standard error). For statistical analysis, one-way analysis of variance (one-way ANOVA) and LSD multiple comparisons method were used for the relative tumor volume data, comparing the significant difference of the relative tumor volumes between the groups. p<0.05 indicates the significant difference.

[3] = test system: human liver cancer plc/prf/5; details: 10 mg/kg (based on rapamycin), i.v., Q2W × 2W
Description: Plc/prf/5 cells were cultured in vitro in monolayer under conditions of MEM medium with supplement of 10% heat-inactivated fetal calf serum at 37° C. in an incubator at an atmosphere with 5% CO2. The cells were digested by using tyrisin-EDTA and passaged twice a week. Cells in exponential growth phase were collected, counted and used to inoculate.
1×10^7 plc/prf/5 tumor cells were suspended in 0.1 mL mixture (PBS: Matrigel=4:1), and were inoculated to the right scapula on the back of each NOD/SCID mouse. When the average tumor volume reached about 350 mm^3 at 24th days after the inoculation, the mice with undersized or oversized tumor volume were removed and the other mice were divided to groups randomly according to the tumor volume and then were administrated.

[4] = test system: human colon cancer HCT-116; test: Xenografted tumor of human colon cancer HCT-116 in nude mice; type: in vivo, BALB/cA nude mice; details: iv
Description: The diameter of subcutaneously xenografted tumor of the nude mice was measured by the caliper.

[5] = test system: human colon cancer HT-29; test: Xenografted tumor of human colon cancer HT-29 in nude mice; type: in vivo, BALB/cA nude mice; details: iv
[6] = test system: human lung cancer A549; test: Xenografted tumor of human lung cancer A549 in nude mice; type: in vivo, BALB/cA nude mice; details: iv
[7] = test system: human ovarian cancer SKOV-3; test: Xenografted tumor of human ovarian cancer SKOV-3 in nude mice; type: in vivo, BALB/cA nude mice; details: iv; for number of animals with vanished tumor: d28, 6 mice per group
[8] = day 24 after the inoculation (grouping)

Cc1nc(Nc2ncc(C(=O)Nc3c(C)cccc3Cl)s2)cc(N2CCN(CCO)CC2)n1 [dasatinib]
T/C (relative tumor proliferation ratio) ([1]; 14th day after the grouping, compared with the solvent control group): 12.4% | Relative tumor volume (x ± SE) ([1]; 14th day after the grouping): 226.9 ± 30.0 | Tumor volume (x ± SE) ([1]; 14th day after the grouping): 311 mm^3 and 311 ± 55 mm^3 | Relative tumor volume (x ± SE) ([1]; 21st day after grouping): 289.1 ± 46.9 | Tumor volume (x ± SE) ([1]; 21st day after grouping): 391 mm^3 and 391 ± 79 mm^3 | T/C (relative tumor proliferation ratio) ([2]; 22nd day after grouping, compared with the solvent control group): 73% | Relative tumor volume (x ± SE) ([2]; 22nd day after grouping): 1148.9 ± 112.7 | Relative tumor volume (x ± SE) ([2]; 25th day after grouping): 1235.3 ± 119.6

conjugate of methoxy PEG (20K) dipeptide of glutamic acid glycine-rapamycin [LPR-2]
Delayed days of tumor growth (to 1000 mm^3) [3]: >7 days | Tumor volume (average ± standard error) [3, 8]: 353 ± 54 mm^3 | Tumor volume (average ± standard error) ([3]; day 27 after the inoculation): 404 ± 89 mm^3 | Tumor volume (average ± standard error) ([3]; day 31 after the inoculation): 391 ± 72 mm^3 | Tumor volume (average ± standard error) ([3]; day 34 after the inoculation): 456 ± 77 mm^3 | Tumor volume (average ± standard error) ([3]; day 38 after the inoculation): 536 ± 77 mm^3

CCc1c2c(nc3ccc(OC(=O)N4CCC(N5CCCCC5)CC4)cc13)-c1cc3c(c(=O)n1C2)COC(=O)[C@]3(O)CC [CPT-11, irinotecan hydrochloride]
Body weight, End ([4]; 15 mg/kg, q3w × 3w): 16.6 g | RTV (mean ± SD) ([4]; 15 mg/kg, q3w × 3w): 2.57 ± 0.66 | T/C ([4]; 15 mg/kg, q3w × 3w): 39.84% | TV (mean ± SD) d0 ([4]; 15 mg/kg, q3w × 3w): 129 ± 26 mm^3 | TV (mean ± SD) d28 ([4]; 15 mg/kg, q3w × 3w): 322 ± 37 mm^3 | Body weight, End ([4]; 45 mg/kg, qw × 3w): 15.1 g | RTV (mean ± SD) ([4]; 45 mg/kg, qw × 3w): 4.10 ± 0.73 | T/C ([4]; 45 mg/kg, qw × 3w): 63.56% | TV (mean ± SD) d0 ([4]; 45 mg/kg, qw × 3w): 126 ± 25 mm^3 | TV (mean ± SD) d28 ([4]; 45 mg/kg, qw × 3w): 512 ± 99 mm^3 | Body weight, Beginning ([5]; 15 mg/kg, q3w × 3w): 18.2 g | Body weight, End ([5]; 15 mg/kg, q3w × 3w): 16.0 g | RTV (mean ± SD) ([5]; 15 mg/kg, q3w × 3w): 3.79 ± 1.21*^, | T/C ([5]; 15 mg/kg, q3w × 3w): 27.27% | TV (mean ± SD) d0 ([5]; 15 mg/kg, q3w × 3w): 121 ± 14 mm^3 | Body weight, Beginning ([5]; 45 mg/kg, qw × 3w): 18.6 g | Body weight, End ([5]; 45 mg/kg, qw × 3w): 16.2 g | RTV (mean ± SD) ([5]; 45 mg/kg, qw × 3w): 8.69 ± 3.43 | T/C ([5]; 45 mg/kg, qw × 3w): 62.52% | TV (mean ± SD) d0 ([5]; 45 mg/kg, qw × 3w): 116 ± 13 mm^3 | Body weight, Beginning ([6]; 15 mg/kg, q3w × 3w): 18.1 g | RTV (mean ± SD) ([6]; 15 mg/kg, q3w × 3w): 7.67 ± 2.88**^, | T/C ([6]; 15 mg/kg, q3w × 3w): 53.26% | TV (mean ± SD) d0 ([6]; 15 mg/kg, q3w × 3w): 112 ± 21 mm^3 | TV (mean ± SD) d28 ([6]; 15 mg/kg, q3w × 3w, d28): 831 ± 305 mm^3 | RTV (mean ± SD) ([6]; 45 mg/kg, qw × 3w): 9.87 ± 4.87 | T/C ([6]; 45 mg/kg, qw × 3w): 68.54% | TV (mean ± SD) d0 ([6]; 45 mg/kg, qw × 3w): 110 ± 15 mm^3 | Body weight, Beginning ([7]; 15 mg/kg, q3w × 3w): 18.9 g | Body weight, End ([7]; 15 mg/kg, q3w × 3w): 18.0 g | RTV (mean ± SD) ([7]; 15 mg/kg, q3w × 3w): 7.39 ± 5.22**^, | T/C ([7]; 15 mg/kg, q3w × 3w): 55.69% | TV (mean ± SD) d0 ([7]; 15 mg/kg, q3w × 3w): 137 ± 33 mm^3 | TV (mean ± SD) d28 ([7]; 15 mg/kg, q3w × 3w): 924 ± 443 mm^3 | number of animals with vanished tumor ([7]; 15 mg/kg, q3w × 3w): 0 | Body weight, Beginning ([7]; 45 mg/kg, qw × 3w): 19.7 g | RTV (mean ± SD) ([7]; 45 mg/kg, qw × 3w): 12.80 ± 3.91 | T/C ([7]; 45 mg/kg, qw × 3w): 96.46% | TV (mean ± SD) d0 ([7]; 45 mg/kg, qw × 3w): 136 ± 44 mm^3 | TV (mean ± SD) d28 ([7]; 45 mg/kg, qw × 3w): 1753 ± 878 mm^3 | number of animals with vanished tumor ([7]; 45 mg/kg, qw × 3w): 0

conjugate of Y shape PEG dipeptide of glutamic acid and glycine (number-average molecular weight of 40,000)-rapamycin [LPR-3]
Delayed days of tumor growth (to 1000 mm^3) [3]: >7 days | Tumor proliferation rates T/C ([3]; compared with the solvent group, day 38 after the inoculation): 47% | Tumor volume (average ± standard error) [3, 8]: 358 ± 62 mm^3 | Tumor volume (average ± standard error) ([3]; day 27 after the inoculation): 455 ± 85 mm^3 | Tumor volume (average ± standard error) ([3]; day 31 after the inoculation): 569 ± 100 mm^3 | Tumor volume (average ± standard error) ([3]; day 34 after the inoculation): 754 ± 151 mm^3 | Tumor volume (average ± standard error) ([3]; day 38 after the inoculation): 848 ± 178 mm^3
